The test system of series [1] is Human immunodeficiency virus 1. The experiment in a line: Antiviral activity against HIV1 assessed as inhibition of capsid assembly. The class given is functional.
For a further series, the system named is Rous sarcoma virus. The series can be described thus: Antiviral activity against Rous sarcoma virus assessed as inhibition of capsid assembly. The class given is functional.
Series [2] relates to Human immunodeficiency virus 1. The series can be described thus: Antiviral activity against HIV1 infected in human C8166 cells assessed as inhibition of viral replication after 3 days by luciferase assay. The format is functional, organism-based. The settings on record: Human immunodeficiency virus 1, C8166, 72 h.
The subject of series [3] is Human immunodeficiency virus 1. The experiment in a line: Antiviral activity against HIV1 assessed as inhibition of capsid assembly at 1.4 uM. The format is functional.
For series [4], the system named is Human immunodeficiency virus 1. The series can be described thus: Antiviral activity against HIV1 expressing wild type reverse transcriptase infected in human C8166 cells assessed as inhibition of viral replication after 3 days by luciferase assay. The format is functional, organism-based. To be noted: Human immunodeficiency virus 1, C8166, 72 h.
Series [5] concerns Human immunodeficiency virus 1. The experiment in a line: Antiviral activity against HIV1 assessed as inhibition of capsid assembly at 3.8 uM. The format is functional.
The nature of series [6]: Cytotoxicity against human C8166 cells. The class given is cell-based.
For series [7], the system named is Human immunodeficiency virus 1. The series can be described thus: Antiviral activity against HIV1 expressing reverse transcriptase K103N/Y181C double mutant infected in human C8166 cells assessed as inhibition of viral replication after 3 days by luciferase assay. To be noted: Human immunodeficiency virus 1, C8166, 72 h. The format is functional, organism-based.

As a reminder, the IC50 is the concentration at which inhibition is half-maximal. As usually defined, the EC50 is the concentration needed to bring the measured effect to its halfway point. The inhibition is the relative decrease from the control value, in per cent. The CC50 is the concentration at which the toxic effect on the cells reaches its halfway point. Low values mean harm at low concentration, high ones better tolerance by the cells.

For `CCCCN/C=C1\C(=O)Nc2ccc(Cl)cc2N(c2ccccc2)C1=O`, the IC50 was 1400 nM in series [1] and above 100000 nM in the series with Rous sarcoma virus. In addition, the concentration for a half-maximal effect (EC50) in series [2] turned out to be 17000 nM.

For the compound `O=C1CC(=O)Nc2cc(Cl)ccc2N1`, the IC50 in series [1] is above 46000 nM.

On to `COCCN/C=C1\C(=O)Nc2ccc(Cl)cc2NC1=O`, for which the half-maximal inhibitory concentration (IC50) in series [1] was 1400 nM. As to `O=C1Nc2ccc(Cl)cc2NC(=O)/C1=C/NCCO`, the IC50 in series [1] came to 850 nM. On the same count and under the same terms, in the case of `O=C1Nc2ccc(Cl)cc2NC(=O)/C1=C/NCc1ccncc1` it was 670 nM. On the same count and under the same terms, the same measure for `COCCN/C=C1/C(=O)Nc2cc(Cl)ccc2N(C)C1=O`: 590 nM. Regarding `CCN1C(=O)/C(=C\NCCOC)C(=O)Nc2cc(Cl)ccc21`, the IC50 in series [1] worked out at 470 nM. As to `COCCN/C=C1/C(=O)Nc2cc(Cl)ccc2N(c2ccc(C)cc2)C1=O`, the 50% inhibitory concentration (IC50) in series [1] is above 9000 nM. On the same count and under the same terms, in the case of `COCCN/C=C1\C(=O)N(C)c2cccc(Cl)c2N(c2ccccc2)C1=O` it was 930 nM; in that of `COCCN/C=C1\C(=O)N(C)c2c(Cl)cccc2N(c2ccccc2)C1=O`, 2600 nM. `COCCN/C=C1\C(=O)N(C)c2cc(Cl)ccc2N(c2ccccc2)C1=O`: the concentration for half-maximal inhibition (IC50) in series [1] is 1600 nM. Still for that read-out and setting: the same measure for `COCCN/C=C1\C(=O)N(C)c2ccc(C(F)(F)F)cc2N(c2ccccc2)C1=O`: 890 nM. On to `COCCN/C=C1\C(=O)N(C)c2ccc(C3CC3)cc2N(c2ccccc2)C1=O`, for which the IC50 in series [1] was found to be 1400 nM. The same measure, in the same setting: the same measure for `COCCN/C=C1\C(=O)N(C)c2ccc(C(F)(F)F)cc2N(c2ccc(Cl)cc2)C1=O`: 4000 nM; for `COCCN/C=C1\C(=O)N(C)c2ccc(C(F)(F)F)cc2N(c2cccc(Cl)c2)C1=O`: 7800 nM.

In the case of `COCCN/C=C1\C(=O)N(C)c2ccccc2N(c2cccs2)C1=O`, the IC50 in series [1] is 500 nM. Take `CN1c2ccc(Cl)cc2N(c2ccccc2)C(=O)c2c[nH]nc21`: the IC50 in series [1] turned out to be 300 nM. Also, the half-maximal effective concentration (EC50) in series [2] was found to be 7800 nM. For `CN1c2ccc(Cl)cc2N(c2ccccc2)C(=O)c2cn(C)nc21`, in that order: 700 nM and 7000 nM. Consider `CCn1cc2c(n1)N(C)c1ccc(Cl)cc1N(c1ccccc1)C2=O`, for which the IC50 in series [1] is 2200 nM. Regarding `COCCn1cc2c(n1)N(C)c1ccc(Cl)cc1N(c1ccccc1)C2=O`, in series [1], the IC50 was determined as 1500 nM. Besides, the EC50 in series [2] came out at 16000 nM.

For the compound `CN(C)CCn1cc2c(n1)N(C)c1ccc(Cl)cc1N(c1ccccc1)C2=O`, the concentration for half-maximal inhibition (IC50) in series [1] was found to be 6800 nM. The 50% effective concentration (EC50) in series [2] worked out at 16000 nM. For `CN1c2ccc(Cl)cc2N(c2ccccc2)C(=O)c2cn(Cc3ccc(CN4CCOCC4)cc3)nc21`, in that order: 1000 nM and 900 nM. Consider `CN1c2ccc(Cl)cc2N(c2ccccc2)C(=O)c2cn(Cc3ccc(C(=O)O)cc3)nc21`, for which, in series [1], the IC50 came out at 600 nM. The half-maximal effective concentration (EC50) in series [2] was determined as 2000 nM. Turning to `CN1c2ccc(Cl)cc2N(c2ccccc2)C(=O)c2cn(Cc3cccc(O)c3)nc21`, in series [1], the IC50 was found to be 600 nM. Moreover, in series [2], the EC50 came out at 4700 nM. In the case of `CN1c2ccc(Cl)cc2N(c2ccccc2)C(=O)c2[nH]cnc21`, the half-inhibitory concentration (IC50) in series [1] amounted to 210 nM. In addition, the concentration for a half-maximal effect (EC50) in series [2] was 3800 nM.

Regarding `CN1c2ccc(Cl)cc2N(c2ccccc2)C(=O)c2c1ncn2C`, in series [1], the half-maximal inhibitory concentration (IC50) was 300 nM. In series [2], the EC50 came to 2900 nM. The corresponding values for `CCn1cnc2c1C(=O)N(c1ccccc1)c1cc(Cl)ccc1N2C` are 220 nM and 5200 nM. The corresponding values for `COCCn1cnc2c1C(=O)N(c1ccccc1)c1cc(Cl)ccc1N2C` are 360 nM and 5800 nM. For `CN1c2ccc(Cl)cc2N(c2ccccc2)C(=O)c2c1ncn2CCN`, in that order: 370 nM and 4800 nM. On to `CN1c2ccc(Cl)cc2N(c2ccccc2)C(=O)c2c1ncn2Cc1cccc(O)c1`, for which, in series [1], the IC50 was 560 nM. The half-maximal effective concentration (EC50) in series [2] is 7300 nM. For `CN1c2ccc(Cl)cc2N(c2ccccc2)C(=O)c2c1ncn2Cc1ccc(C(=O)O)cc1`, in that order: 430 nM and 6100 nM. For `COCCNCc1ccc(Cn2cnc3c2C(=O)N(c2ccccc2)c2cc(Cl)ccc2N3C)cc1`, in that order: 170 nM and 900 nM. As for `C=CCC1C(=O)N(C)c2ccc(C(F)(F)F)cc2N(c2ccccc2)C1=O` (configuration not stated), the IC50 in series [1] is 16000 nM. Consider `CN1C(=O)C(CCc2ccccc2)C(=O)N(c2ccccc2)c2cc(C(F)(F)F)ccc21` (configuration not stated), for which the inhibition at 1.4 µM in series [3] stood at 10%. Regarding `CN1C(=O)C(Cc2ccccc2)C(=O)N(c2ccccc2)c2cc(C(F)(F)F)ccc21` (configuration not stated), the half-maximal effective concentration (EC50) in series [4] was above 20000 nM. Besides, the inhibition at 3.8 µM in series [5] came out at 40%. In turn, `CN1C(=O)C(c2ccccc2)C(=O)N(c2ccccc2)c2cc(C(F)(F)F)ccc21` (configuration not stated) returned a CC50 in series [6] above 20000 nM. The EC50 turned out to be 3000 nM in series [4] and 2700 nM in series [7]. The half-maximal inhibitory concentration (IC50) in series [1] amounted to 1200 nM.
